The values below come from patent US10167279B2 (NOVARTIS AG, priority 2014, dated 2019).

Chain of C-Raf FL (P04049 whole entry Y340E/Y341E): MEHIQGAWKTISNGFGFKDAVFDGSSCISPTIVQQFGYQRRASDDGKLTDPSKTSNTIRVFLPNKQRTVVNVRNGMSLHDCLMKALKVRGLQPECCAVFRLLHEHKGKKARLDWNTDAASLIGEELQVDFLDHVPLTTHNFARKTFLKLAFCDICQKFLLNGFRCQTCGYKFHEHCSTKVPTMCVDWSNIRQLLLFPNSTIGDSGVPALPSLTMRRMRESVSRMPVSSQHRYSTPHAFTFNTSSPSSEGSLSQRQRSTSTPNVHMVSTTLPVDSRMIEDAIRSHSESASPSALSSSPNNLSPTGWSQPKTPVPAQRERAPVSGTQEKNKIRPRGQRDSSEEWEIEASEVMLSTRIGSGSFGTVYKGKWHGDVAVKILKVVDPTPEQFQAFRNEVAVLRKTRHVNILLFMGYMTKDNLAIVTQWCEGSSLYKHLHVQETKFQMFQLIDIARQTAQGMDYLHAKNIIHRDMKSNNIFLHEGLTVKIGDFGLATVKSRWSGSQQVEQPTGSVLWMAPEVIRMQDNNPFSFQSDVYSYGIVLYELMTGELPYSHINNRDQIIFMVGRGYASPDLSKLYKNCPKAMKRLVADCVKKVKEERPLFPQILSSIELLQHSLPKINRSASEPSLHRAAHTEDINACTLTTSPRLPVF
Chain of C-Raf FL (P63104 whole entry partner): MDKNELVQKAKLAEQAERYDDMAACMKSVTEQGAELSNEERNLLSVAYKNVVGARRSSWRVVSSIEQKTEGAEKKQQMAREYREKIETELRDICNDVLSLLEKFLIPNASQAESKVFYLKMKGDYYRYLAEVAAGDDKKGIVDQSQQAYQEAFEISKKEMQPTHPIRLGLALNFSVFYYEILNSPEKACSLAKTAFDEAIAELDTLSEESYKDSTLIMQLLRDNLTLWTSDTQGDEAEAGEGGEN

The experiment concerns the target C-Raf FL (Homo sapiens (Human), UniProt P04049, Y340E/Y341E). Description: In vitro Raf activity determination (Alpha Screen, phospho-MEK), C-Raf FL (full length, Y340E/Y341E). In kind it is biochemical. The following applies: ATP 1 μM; 60 min pre-incubation; 1 hour reaction; column head does not say FL or TR. In outline:
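Sf9-expressed C-Raf incubated with biotinylated kinase-dead MEK1 (K97R) in 50 mM Tris pH 7.5, 15 mM MgCl2, 0.01% BSA, 1 mM DTT with compound, 60 min at room temperature. Phospho-MEK detected by anti-p-MEK AlphaScreen luminescence; IC50 by non-linear regression.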
In turn, `CCOc1ncc(-c2cc(NC(=O)c3ccnc(C(C)(C)F)c3)cnc2C)cc1C1(CO)CCOC1` (stereo not shown) [Example 292, N-(6′-ethoxy-5′-(3-(hydroxymethyl)tetrahydrofuran-3-yl)-2-methyl-[3,3′-bipyridin]-5-yl)-2-(2-fluoropropan-2-yl)isonicotinamide] returned an IC50 of 9 nM.

Molecule `CCOc1ncc(-c2cc(NC(=O)c3ccnc(C(C)(C)F)c3)cnc2C)cc1C1(F)CCOC1` (stereo not shown) [Example 298, N-(6′-ethoxy-5′-(3-fluorotetrahydro-furan-3-yl)-2-methyl-[3,3′-bipyridin]-5-yl)-2-(2-fluoropropan-2-yl)isonicotinamide] gave a concentration for half-maximal inhibition (IC50) of 2 nM.

In turn, `Cc1ccc(NC(=O)c2cccc(C(F)(F)F)c2)cc1-c1cc(C2CCOCC2)nc(N2CCC(O)CC2)c1` [Example 186, N-(3-(2-(4-hydroxypiperidin-1-yl)-6-(tetrahydro-2H-pyran-4-yl)pyridin-4-yl)-4-methylphenyl)-3-(trifluoromethyl) benzamide] had a half-maximal inhibitory concentration (IC50) of 0.83 nM.

Regarding `Cc1ccc(NC(=O)c2ccnc(C(F)(F)F)c2)cc1-c1cc(OCCO)nc(C2(CF)COC2)c1` [Example 57, N-(3-(2-(3-(fluoromethyl)oxetan-3-yl)-6-(2-hydroxyethoxy)pyridin-4-yl)-4-methylphenyl)-2-(trifluoromethyl)isonicotin-amide], inhibition was half-maximal at 0.149 nM (IC50).

`CCOc1ncc(-c2cc(NC(=O)c3ccnc(C(C)(C)C#N)c3)ccc2C)cc1C1(CO)CCOC1` (stereo not shown) [Example 289, 2-(2-cyanopropan-2-yl)-N-(3-(6-ethoxy-5-(3-(hydroxymethyl)tetrahydrofuran-3-yl)pyridin-3-yl)-4-methylphenyl) isonicotinamide] had an IC50 of 2 nM.

With `Cc1ccc(NC(=O)c2ccnc(C(C)(F)F)c2)cc1-c1cc2c(c(C3CCOCC3)c1)OC(C)(C)C(=O)N2` [Example 197, 2-(1,1-difluoroethyl)-N-(3-(2,2-dimethyl-3-oxo-8-(tetrahydro-2H-pyran-4-yl)-3,4-dihydro-2H-benzo[b][1,4]oxazin-6-yl)-4-methylphenyl) isonicotinamide], the midpoint of inhibition, the IC50, lay at 0.4 nM.

In the case of `CCC(F)(F)c1cc(C(=O)Nc2ccc(C)c(-c3cc(C4CCOCC4)nc(N4CCC(O)CC4)c3)c2)ccn1` [Example 188, 2-(1,1-difluoropropyl)-N-(3-(2-(4-hydroxypiperidin-1-yl)-6-(tetrahydro-2H-pyran-4-yl)pyridin-4-yl)-4-methylphenyl)-2-isonicotinamide], half-maximal inhibition (IC50) required 0.621 nM.

Regarding `CCN1CCC(Oc2nnc(-c3cc(NC(=O)c4ccnc(C(F)(F)F)c4)ccc3C)cc2C2CCOCC2)CC1` [Example 314, N-(3-(6-((1-ethylpiperidin-4-yl)oxy)-5-(tetrahydro-2H-pyran-4-yl)pyridazin-3-yl)-4-methylphenyl)-2-(trifluoromethyl) isonicotinamide], it took 0.06 nM to reach half-maximal inhibition (IC50).

For `Cc1ccc(NC(=O)c2ccnc(C(F)(F)F)c2)cc1-c1cc(N2CCOC2=O)nc(C2(O)CCOCC2)c1` [Example 286, N-(3-(2-(4-hydroxytetrahydro-2H-pyran-4-yl)-6-(2-oxooxazolidin-3-yl)pyridin-4-yl)-4-methylphenyl)-2-(trifluoromethyl)isonicotinamide], the IC50 was 0.297 nM.

As for `Cc1ccc(NC(=O)c2cc(C(F)(F)F)ccn2)cc1-c1cc(OCCO)nc(C2CCOCC2O)c1` (stereo not shown) [Example 247], the half-maximal inhibitory concentration (IC50) came to 0.4 nM.

Regarding `Cc1nc2cc(C3CCOCC3)cc(-c3cc(NC(=O)c4ccnc(C(C)(F)F)c4)ccc3C)c2[nH]1` [Example 222, 2-(1,1-difluoroethyl)-N-(4-methyl-3-(2-methyl-5-(tetrahydro-2H-pyran-4-yl)-1H-benzo[d]imidazol-7-yl)phenyl) isonicotinamide], inhibition was half-maximal at 0.4 nM (IC50).

`Cc1ccc(NC(=O)c2ccnc(C(F)(F)F)c2)cc1-c1cc2c(c(C3CCOCC3)c1)OC(C)(C)C(=O)N2` [Example 196, N-(3-(2,2-dimethyl-3-oxo-8-(tetrahydro-2H-pyran-4-yl)-3,4-dihydro-2H-benzo[b][1,4]oxazin-6-yl)-4-methylphenyl)-2-(trifluoromethyl) isonicotinamide] registered an IC50 of 0.4 nM.

Molecule `Cc1nc2cc(C3CCOCC3)cc(-c3cc(NC(=O)c4ccnc(C(C)(C)C#N)c4)ccc3C)c2[nH]1` [Example 223, 2-(2-cyanopropan-2-yl)-N-(4-methyl-3-(2-methyl-5-(tetrahydro-2H-pyran-4-yl)-1H-benzo[d]imidazol-7-yl)phenyl) isonicotinamide] registered an IC50 of 0.6 nM.

Molecule `Cc1ccc(NC(=O)c2cc(C(F)(F)F)cnn2)cc1-c1cc(OC[C@H](O)CO)nc(C2CCOCC2)c1` [Example 274] gave a 50% inhibitory concentration (IC50) of 0.03 nM.

Molecule `Cc1ncc(NC(=O)c2ccnc(C(C)(F)F)c2)cc1-c1cc(C2(O)COC2)cc(C2(F)COC2)c1` [Example 141, 2-(1,1-difluoroethyl)-N-(5-(3-(3-fluorooxetan-3-yl)-5-(3-hydroxyoxetan-3-yl)phenyl)-6-methylpyridin-3-yl)isonicotinamide] returned a half-maximal inhibitory concentration (IC50) of 5.9 nM.

Molecule `Cc1ncc(NC(=O)c2ccnc(C(C)(C)F)c2)cc1-c1cc(C2(O)COC2)cc(C2(F)COC2)c1` [Example 142, N-(5-(3-(3-fluorooxetan-3-yl)-5-(3-hydroxyoxetan-3-yl)phenyl)-6-methylpyridin-3-yl)-2-(2-fluoropropan-2-yl)isonicotinamide] displayed an IC50 of 11.2 nM.

Molecule `Cc1ncc(NC(=O)c2cccc(C(F)(F)F)c2)cc1-c1cc(OCCO)nc(C2(CF)COC2)c1` [Example 132, N-(2′-(3-(fluoromethyl)oxetan-3-yl)-6′-(2-hydroxyethoxy)-2-methyl-[3,4′-bipyridin]-5-yl)-3-(trifluoromethyl)benzamide] had a half-maximal inhibitory concentration (IC50) of 0.0853 nM.

Molecule `CCOc1ncc(-c2cc(NC(=O)c3cc(C(F)(F)F)cc(C(C)(C)N)n3)ccc2C)cc1C1(O)COC1` [Example 147, 6-(2-aminopropan-2-yl)-N-(3-(6-ethoxy-5-(3-hydroxyoxetan-3-yl)pyridin-3-yl)-4-methylphenyl)-4-(trifluoromethyl)picolin-amide] returned a 50% inhibitory concentration (IC50) of 4.51 nM.

For the molecule `CCOc1ncc(-c2cc(NC(=O)c3ccnc(C(C)(C)C#N)c3)ccc2C)cc1C1(O)CCOC1` (stereo not shown) [Example 293, 2-(2-cyanopropan-2-yl)-N-(3-(6-ethoxy-5-(3-hydroxytetrahydro-furan-3-yl)pyridin-3-yl)-4-methylphenyl) isonicotinamide], the midpoint of inhibition, the IC50, lay at 2 nM.

As to `CCOc1nnc(-c2cc(NC(=O)c3cc(C(F)(F)F)c[nH]c3=O)ccc2C)cc1C1CCOCC1` [Example 226, N-(3-(6-ethoxy-5-(tetrahydro-2H-pyran-4-yl)pyridazin-3-yl)-4-methylphenyl)-2-oxo-5-(trifluoromethyl)-1,2-dihydropyridine-3-carboxamide], the IC50 was 4 nM.

`COC1(c2cc(-c3cc(NC(=O)c4ccnc(C(F)(F)F)c4)ccc3C)cc(OCCO)n2)COC1` [Example 157, N-(3-(2-(2-hydroxyethoxy)-6-(3-methoxyoxetan-3-yl)pyridin-4-yl)-4-methylphenyl)-2-(trifluoromethyl)isonicotin-amide] showed an IC50 of 0.3 nM.

`Cc1ccc(NC(=O)c2cccc(C(F)(F)F)c2)cc1-c1cc(C2COC2)c2nccn2n1` [Example 6, N-(4-methyl-3-(8-(oxetan-3-yl)imidazo[1,2-b]pyridazin-6-yl)phenyl)-3-(trifluoromethyl)benzamide]: the IC50 is 0.3 nM.

The IC50 is the concentration needed to halve the response being measured. Lower therefore signals inhibition by little substance.
